Laboratory results reported in patent publication US5968958A, “5-Methanesulfonamido-3H-isobenzofuran-1-ones as inhibitors of cyclooxygenase-2” (Merck Frosst Canada, Inc., priority 1997, dated 1999).
Read-outs that look alike come from different tables or passages of the source.

Legend:
[1] = target: T1, cyclooxygenase-2 (Homo sapiens, UniProt P35354); assay: Whole cell cyclooxygenase assay, PGE2 synthesis in human osteosarcoma 143 cells (COX-2); format: cell-based
T1 construct: human osteosarcoma 143 cells (which specifically express cyclooxygenase-2); endogenous in cells; host or cells: human osteosarcoma 143 cells
T1 sequence (P35354 18-604): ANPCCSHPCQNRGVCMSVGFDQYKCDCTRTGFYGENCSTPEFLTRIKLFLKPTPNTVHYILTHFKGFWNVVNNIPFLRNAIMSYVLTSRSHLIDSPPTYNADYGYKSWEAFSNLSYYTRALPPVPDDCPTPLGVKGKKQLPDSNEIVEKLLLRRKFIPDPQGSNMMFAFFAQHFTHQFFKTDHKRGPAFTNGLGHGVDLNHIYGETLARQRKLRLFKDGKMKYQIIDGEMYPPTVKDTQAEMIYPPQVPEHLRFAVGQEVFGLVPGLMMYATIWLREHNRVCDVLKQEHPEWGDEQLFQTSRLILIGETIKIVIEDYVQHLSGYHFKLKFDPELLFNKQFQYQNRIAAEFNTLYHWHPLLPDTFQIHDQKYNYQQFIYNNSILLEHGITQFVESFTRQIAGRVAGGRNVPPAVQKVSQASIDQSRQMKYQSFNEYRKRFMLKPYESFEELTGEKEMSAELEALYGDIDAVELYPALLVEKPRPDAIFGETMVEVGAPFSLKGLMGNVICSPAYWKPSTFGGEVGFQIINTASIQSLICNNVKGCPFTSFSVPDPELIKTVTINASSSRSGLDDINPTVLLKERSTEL
Experimental: (§1) Inhibition of Cyclooxygenase Activity
(§2) Compounds are tested as inhibitors of cyclooxygenase activity in whole cell cyclooxygenase assays. Both of these assays measure prostaglandin E2 synthesis in response to arachidonic acid, using a radioimmunoassay. Cells used for these assays are human osteosarcoma 143 cells (which specifically express cyclooxygenase-2) and human U-937 cells (which specifically express cyclooxygenase-1). In these assays, 100% activity is defined as the difference between prostaglandin E2 synthesis in the absence and presence of arachidonate.
(§3) In the assay, inhibition is determined by measuring the amount of prostaglandin E2 (PGE2) synthesized in the presence of arachidonic acid, cyclooxygenase-1 or cyclooxygenase-2 and a putative inhibitor. The IC50 values represent the concentration of putative inhibitor required to return PGE2 synthesis to 50% of that obtained as compared to the uninhibited control.

[2] = target: T2, cyclooxygenase-1 (Homo sapiens, UniProt P23219); assay: Whole cell cyclooxygenase assay, PGE2 synthesis in human U-937 cells (COX-1); format: cell-based; settings: inhibition of PGE2 production, arachidonic acid, radioimmunoassay
T2 construct: human U-937 cells (which specifically express cyclooxygenase-1); endogenous in cells; host or cells: human U-937 cells
T2 sequence (P23219 24-599): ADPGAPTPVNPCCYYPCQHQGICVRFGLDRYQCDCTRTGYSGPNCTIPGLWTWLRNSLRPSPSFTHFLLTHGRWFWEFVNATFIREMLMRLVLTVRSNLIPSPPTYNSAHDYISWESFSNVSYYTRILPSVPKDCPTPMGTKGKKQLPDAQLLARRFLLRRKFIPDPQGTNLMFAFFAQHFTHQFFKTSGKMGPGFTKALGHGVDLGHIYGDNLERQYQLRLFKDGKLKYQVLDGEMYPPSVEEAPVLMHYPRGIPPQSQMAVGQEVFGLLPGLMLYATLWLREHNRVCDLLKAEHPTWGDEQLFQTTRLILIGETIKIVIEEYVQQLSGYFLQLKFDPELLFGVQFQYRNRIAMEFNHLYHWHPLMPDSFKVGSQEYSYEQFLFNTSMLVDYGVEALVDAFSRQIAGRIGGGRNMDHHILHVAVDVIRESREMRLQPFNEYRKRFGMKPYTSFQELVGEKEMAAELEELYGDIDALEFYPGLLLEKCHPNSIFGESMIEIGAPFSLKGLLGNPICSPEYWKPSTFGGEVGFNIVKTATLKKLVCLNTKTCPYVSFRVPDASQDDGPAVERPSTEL
Experimental: as §1, §2, §3

[3] = system: Rat Paw edema; assay: Rat Paw Edema Assay (carrageenan); format: in vivo, rat (male Sprague-Dawley); settings: po, 1 hr before subplantar carrageenan (500 μg per paw), paw volume increase at 3 h
Experimental: Rat Paw Edema Assay--Protocol
Male Sprague-Dawley rats (150-200 g) are fasted overnight and are given po either vehicle (1% methocell or 5% Tween 80) or a test compound. One hr later, a line is drawn using a permanent marker at the level above the ankle in one hind paw to define the area of the paw to be monitored. The paw volume (V0) is measured using a plethysmometer (Ugo-Basile, Italy) based on the principle of water displacement. The animals are then injected subplantarly with 50 μl of 1% carrageenan solution in saline (FMC Corp, Maine) into the paw using an insulin syringe with a 25-gauge needle (i.e., 500 μg carrageenan per paw). Three h later, the paw volume (V3) is measured and the increases in paw volume (V3 -V0) are calculated. The animals are sacrificed by CO2 asphyxiation and the absence or presence of stomach lesions scored. Data is compared with the vehicle-control values and percent inhibition calculated. All treatment groups are coded to eliminate observer bias.

[4] = inhibition of PGE2 production, human osteosarcoma 143 cells, arachidonic acid, radioimmunoassay, read-out: Osteosarcoma cells (COX-2) IC50

| SMILES | IC50 [1] | IC50 [2] | ED30 [3] | IC50 [1, 4] |
| --- | --- | --- | --- | --- |
| CCc1csc(Sc2cc3c(cc2NS(C)(=O)=O)COC3=O)n1 [Example 1, 6-(4-Ethyl-2-thiazolythio)-5-methanesulfonamido-3H-isobenzofuran-1-one] | 6 nM | > 100 µM | 0.16 mg/kg |  |
| CS(=O)(=O)Nc1cc2c(cc1Sc1ccc(Cl)cn1)C(=O)OC2 [Example 2, 6-(5-Chloro-2-pyridylthio)-5-methanesulfonamido-3H-isobenzofuran-1-one] |  | > 100 µM | 1.3 mg/kg | 33 nM |
| CS(=O)(=O)Nc1cc2c(cc1Sc1nccs1)C(=O)OC2 [Example 3, 6-(2-Thiazolythio)-5-methanesulfonamido-3H-isobenzofuran-1-one] |  | > 100 µM |  | 140 nM |
| Cc1csc(Sc2cc3c(cc2NS(C)(=O)=O)COC3=O)n1 [Example 4, 5-Methanesulfonamido-6-(4-methyl-2-thiazolythio)-3H-isobenzofuran-1-one] |  | > 100 µM | 1 mg/kg | 36.7 nM |
